Eight molecules from US9340590B2 (priority 2011, dated 2016) can be followed below.

Where two headings read alike, the source gives them in different places. Positions of bridges follow the written chain, without caps; N, C: chain ends. Non-standard residues stand in square brackets, D forms with d. Residues, ends and D or L forms follow the SMILES beside them. 1Nal = N[C@@H](Cc1cccc2ccccc12)C(=O)O

One assay addresses hNav1.5 (Homo sapiens, UniProt Q14524). The assay can be described thus: cell-based.
In a further assay the target is hNav1.3 (Homo sapiens, UniProt Q9NY46). Description: cell-based. Conditions: IonWorks Quattro, read-out: IWQ Use Nav1.3.
Chain of hNav1.3 (Q9NY46 whole entry, looked up): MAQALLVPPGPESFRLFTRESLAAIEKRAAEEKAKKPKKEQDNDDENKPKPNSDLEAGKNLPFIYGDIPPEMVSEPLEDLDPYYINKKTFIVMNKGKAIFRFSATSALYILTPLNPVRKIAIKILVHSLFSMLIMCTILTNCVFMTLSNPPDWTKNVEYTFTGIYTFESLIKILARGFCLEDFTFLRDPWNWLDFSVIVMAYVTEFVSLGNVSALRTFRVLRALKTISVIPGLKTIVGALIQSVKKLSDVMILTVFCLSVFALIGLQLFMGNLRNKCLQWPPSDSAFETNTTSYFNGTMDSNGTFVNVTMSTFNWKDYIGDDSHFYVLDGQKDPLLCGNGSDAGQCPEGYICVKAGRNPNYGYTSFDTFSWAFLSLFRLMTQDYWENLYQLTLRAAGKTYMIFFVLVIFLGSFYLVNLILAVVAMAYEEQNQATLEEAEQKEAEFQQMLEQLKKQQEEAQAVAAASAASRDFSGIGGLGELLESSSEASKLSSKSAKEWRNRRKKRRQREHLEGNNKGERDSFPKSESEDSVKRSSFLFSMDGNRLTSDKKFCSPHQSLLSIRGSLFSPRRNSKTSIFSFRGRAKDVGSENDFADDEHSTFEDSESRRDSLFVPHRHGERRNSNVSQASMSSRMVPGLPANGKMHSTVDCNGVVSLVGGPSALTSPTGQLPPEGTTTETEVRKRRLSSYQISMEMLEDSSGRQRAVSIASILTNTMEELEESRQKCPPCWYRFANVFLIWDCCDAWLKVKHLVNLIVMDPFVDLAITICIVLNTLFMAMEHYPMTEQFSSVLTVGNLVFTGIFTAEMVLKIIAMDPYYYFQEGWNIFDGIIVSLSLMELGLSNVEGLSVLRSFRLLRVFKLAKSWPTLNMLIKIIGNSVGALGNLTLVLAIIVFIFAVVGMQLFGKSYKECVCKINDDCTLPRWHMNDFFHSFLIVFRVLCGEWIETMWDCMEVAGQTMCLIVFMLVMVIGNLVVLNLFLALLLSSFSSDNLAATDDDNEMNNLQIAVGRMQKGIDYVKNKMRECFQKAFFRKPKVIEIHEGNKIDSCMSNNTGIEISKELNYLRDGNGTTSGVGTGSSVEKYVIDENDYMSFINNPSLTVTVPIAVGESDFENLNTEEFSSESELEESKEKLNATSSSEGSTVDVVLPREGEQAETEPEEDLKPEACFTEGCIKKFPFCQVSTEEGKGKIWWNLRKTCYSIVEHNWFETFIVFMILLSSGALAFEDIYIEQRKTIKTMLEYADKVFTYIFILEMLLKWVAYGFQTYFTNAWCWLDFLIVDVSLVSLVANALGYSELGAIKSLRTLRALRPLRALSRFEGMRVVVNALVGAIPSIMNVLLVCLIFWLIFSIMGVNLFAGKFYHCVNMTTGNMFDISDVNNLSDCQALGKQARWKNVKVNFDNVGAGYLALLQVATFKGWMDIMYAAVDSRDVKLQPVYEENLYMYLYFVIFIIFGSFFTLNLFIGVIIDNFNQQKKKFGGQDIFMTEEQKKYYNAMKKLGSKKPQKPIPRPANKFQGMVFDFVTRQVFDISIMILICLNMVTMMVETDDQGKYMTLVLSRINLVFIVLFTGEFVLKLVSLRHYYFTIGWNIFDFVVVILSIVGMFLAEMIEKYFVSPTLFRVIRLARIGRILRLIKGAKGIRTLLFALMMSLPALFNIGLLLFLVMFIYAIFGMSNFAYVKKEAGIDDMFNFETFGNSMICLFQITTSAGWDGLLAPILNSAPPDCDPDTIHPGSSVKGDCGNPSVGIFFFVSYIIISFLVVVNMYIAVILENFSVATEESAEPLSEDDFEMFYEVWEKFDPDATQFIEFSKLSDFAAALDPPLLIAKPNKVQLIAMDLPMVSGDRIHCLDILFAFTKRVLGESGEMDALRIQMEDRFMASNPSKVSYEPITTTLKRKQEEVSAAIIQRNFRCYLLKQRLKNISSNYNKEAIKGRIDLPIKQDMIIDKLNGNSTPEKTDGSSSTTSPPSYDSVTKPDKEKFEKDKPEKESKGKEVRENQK
[1] abbreviates: Table 24, IonWorks Quattro, use, […], read-out: IWQ Use Nav1.5.
Setting [2] is: IonWorks Quattro, Use, read-out: IWQ Use Nav1.5.

Chain of hNav1.5 (Q14524 whole entry, looked up): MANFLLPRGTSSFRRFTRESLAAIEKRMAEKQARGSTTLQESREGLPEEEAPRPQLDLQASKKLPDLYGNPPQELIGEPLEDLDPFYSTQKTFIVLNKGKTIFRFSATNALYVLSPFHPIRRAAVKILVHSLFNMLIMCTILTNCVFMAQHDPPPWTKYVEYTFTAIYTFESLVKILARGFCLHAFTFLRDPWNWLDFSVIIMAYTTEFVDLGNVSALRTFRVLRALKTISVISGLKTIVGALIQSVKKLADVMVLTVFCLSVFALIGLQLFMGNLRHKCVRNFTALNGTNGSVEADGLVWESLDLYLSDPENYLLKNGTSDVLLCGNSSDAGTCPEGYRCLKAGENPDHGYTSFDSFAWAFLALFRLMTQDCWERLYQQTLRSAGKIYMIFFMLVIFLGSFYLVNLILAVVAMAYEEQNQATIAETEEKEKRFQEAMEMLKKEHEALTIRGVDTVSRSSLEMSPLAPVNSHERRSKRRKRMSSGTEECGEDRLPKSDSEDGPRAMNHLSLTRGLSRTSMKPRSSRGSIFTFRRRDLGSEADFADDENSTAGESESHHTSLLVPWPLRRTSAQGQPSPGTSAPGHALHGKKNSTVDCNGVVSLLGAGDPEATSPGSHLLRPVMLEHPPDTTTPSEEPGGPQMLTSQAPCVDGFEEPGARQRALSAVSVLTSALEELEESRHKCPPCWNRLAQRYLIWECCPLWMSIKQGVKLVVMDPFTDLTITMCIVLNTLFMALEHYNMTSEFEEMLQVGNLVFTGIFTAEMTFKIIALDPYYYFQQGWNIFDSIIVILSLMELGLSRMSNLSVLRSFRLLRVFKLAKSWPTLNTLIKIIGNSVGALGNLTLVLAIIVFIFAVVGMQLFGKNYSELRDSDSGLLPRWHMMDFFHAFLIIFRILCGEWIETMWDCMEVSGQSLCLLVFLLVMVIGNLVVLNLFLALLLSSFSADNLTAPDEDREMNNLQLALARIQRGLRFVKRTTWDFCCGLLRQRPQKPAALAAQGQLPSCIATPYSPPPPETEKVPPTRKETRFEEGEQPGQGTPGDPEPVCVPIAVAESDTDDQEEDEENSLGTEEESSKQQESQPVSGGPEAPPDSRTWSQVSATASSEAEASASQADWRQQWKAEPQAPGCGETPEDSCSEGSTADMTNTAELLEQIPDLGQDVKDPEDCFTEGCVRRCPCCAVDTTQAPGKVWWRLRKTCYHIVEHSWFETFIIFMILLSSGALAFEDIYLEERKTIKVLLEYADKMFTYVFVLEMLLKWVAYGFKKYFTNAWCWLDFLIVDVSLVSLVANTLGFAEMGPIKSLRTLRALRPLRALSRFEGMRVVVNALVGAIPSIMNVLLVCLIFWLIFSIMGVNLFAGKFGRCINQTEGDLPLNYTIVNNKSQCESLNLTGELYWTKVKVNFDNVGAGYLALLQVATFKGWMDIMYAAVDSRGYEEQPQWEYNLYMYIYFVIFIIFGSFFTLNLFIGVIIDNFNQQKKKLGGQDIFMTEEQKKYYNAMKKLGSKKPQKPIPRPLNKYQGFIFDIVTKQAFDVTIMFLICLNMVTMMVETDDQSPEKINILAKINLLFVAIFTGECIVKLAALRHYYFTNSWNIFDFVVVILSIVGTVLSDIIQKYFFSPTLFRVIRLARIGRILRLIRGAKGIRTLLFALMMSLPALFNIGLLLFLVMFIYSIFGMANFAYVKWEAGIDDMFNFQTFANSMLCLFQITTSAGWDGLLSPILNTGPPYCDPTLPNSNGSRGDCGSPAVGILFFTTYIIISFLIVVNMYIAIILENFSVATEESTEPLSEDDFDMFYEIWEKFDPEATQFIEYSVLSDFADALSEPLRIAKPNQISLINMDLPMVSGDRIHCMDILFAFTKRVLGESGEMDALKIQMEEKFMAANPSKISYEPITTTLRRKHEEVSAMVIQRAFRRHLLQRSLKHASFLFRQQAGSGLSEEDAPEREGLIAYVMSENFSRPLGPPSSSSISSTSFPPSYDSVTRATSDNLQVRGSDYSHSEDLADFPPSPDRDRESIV

Turning to `CC[C@H](C)[C@@H]1NC(=O)[C@@H]2CSSC[C@@H]3NC(=O)[C@H](C(C)C)NC(=O)[C@H](CC(C)C)NC(=O)[C@H](CC(N)=O)NC(=O)[C@@H]4CCCN4C(=O)[C@H](CCCNC(=N)N)NC(=O)[C@H](CSSC[C@H](NC(=O)[C@@H](N)CC(=O)O)C(=O)N[C@@H](CC(C)C)C(=O)NCC(=O)N[C@@H](Cc4ccccc4)C(=O)N[C@@H](CCSC)C(=O)N[C@@H](CCCNC(=N)N)C(=O)N[C@@H](CCCCN)C(=O)N2)NC(=O)[C@H](CSSC[C@@H](C(=O)N[C@@H](CCCCN)C(=O)N[C@@H](CCCNC(=N)N)C(=O)N[C@H](C(=O)N[C@@H](Cc2ccccc2)C(N)=O)C(C)C)NC(=O)[C@H](Cc2c[nH]c4ccccc24)NC(=O)[C@H](CCCCN)NC(=O)[C@H](Cc2cnc[nH]2)NC(=O)[C@H]([C@@H](C)O)NC(=O)[C@H](CCCNC(=N)N)NC(=O)[C@H](CO)NC3=O)NC(=O)[C@H](CCCCN)NC(=O)[C@H](CC(=O)O)NC(=O)[C@H](CC(N)=O)NC(=O)[C@H](CC(=O)O)NC(=O)[C@@H]2CCCN2C1=O` [compound 159] (H-DCLGFMRKCIPDNDKCCRPNLVCSRTHKWCKRVF-NH2; disulfide 2-17, 9-23, 16-30), the IC50 at hNav1.5 (IWQ Use Nav1.5 (μM)) was determined as 8.65 µM; at hNav1.3 (Table 25, use, […]), 0.87 µM.

`CC[C@H](C)[C@@H]1NC(=O)[C@@H]2CSSC[C@@H]3NC(=O)[C@H](C(C)C)NC(=O)[C@H](CC(C)C)NC(=O)[C@H](CC(N)=O)NC(=O)[C@@H]4CCCN4C(=O)[C@H](CCCNC(=N)N)NC(=O)[C@H](CSSC[C@H](NC(=O)[C@@H](N)CC(=O)O)C(=O)N[C@@H](CC(C)C)C(=O)NCC(=O)N[C@@H](Cc4ccccc4)C(=O)N[C@@H](CCSC)C(=O)N[C@@H](CCCNC(=N)N)C(=O)N[C@@H](CCCCN)C(=O)N2)NC(=O)[C@H](CSSC[C@@H](C(=O)N[C@@H](CCCCN)C(=O)N[C@@H](Cc2ccc(O)cc2)C(=O)N[C@H](C(=O)N[C@@H](Cc2ccccc2)C(N)=O)C(C)C)NC(=O)[C@H](Cc2ccc(O)cc2)NC(=O)[C@H](CCCCN)NC(=O)[C@H](Cc2c[nH]cn2)NC(=O)[C@H]([C@@H](C)O)NC(=O)[C@H](CCCNC(=N)N)NC(=O)[C@H](CO)NC3=O)NC(=O)[C@H](CCCCN)NC(=O)[C@H](CC(=O)O)NC(=O)[C@H](CC(N)=O)NC(=O)[C@H](CC(=O)O)NC(=O)[C@@H]2CCCN2C1=O` [compound 113] (H-DCLGFMRKCIPDNDKCCRPNLVCSRTHKYCKYVF-NH2; disulfide 2-17, 9-23, 16-30): the IC50 on hNav1.5 (setting [1]) turned out to be 9.49 µM; at hNav1.3 (Table 24, use, […]) it was 4.03 µM.

Take `CC[C@H](C)[C@@H]1NC(=O)[C@@H]2CSSC[C@@H]3NC(=O)[C@H](C(C)C)NC(=O)[C@H](CC(C)C)NC(=O)[C@H](CC(N)=O)NC(=O)[C@@H]4CCCN4C(=O)[C@H](CCCNC(=N)N)NC(=O)[C@H](CSSC[C@H](NC(=O)[C@@H](N)CC(=O)O)C(=O)N[C@@H](CC(C)C)C(=O)NCC(=O)N[C@@H](Cc4ccccc4)C(=O)N[C@@H](CCSC)C(=O)N[C@@H](CCCNC(=N)N)C(=O)N[C@@H](CCCCN)C(=O)N2)NC(=O)[C@H](CSSC[C@@H](C(=O)N[C@@H](CCCCN)C(=O)N[C@@H](Cc2ccc(O)cc2)C(=O)N[C@H](C(=O)N[C@@H](Cc2ccccc2)C(=O)O)C(C)C)NC(=O)[C@H](Cc2c[nH]c4ccccc24)NC(=O)[C@H](CCCCN)NC(=O)[C@H](Cc2cnc[nH]2)NC(=O)[C@H]([C@@H](C)O)NC(=O)[C@H](CCCNC(=N)N)NC(=O)[C@H](CO)NC3=O)NC(=O)[C@H](CCCCN)NC(=O)[C@H](CC(=O)O)NC(=O)[C@H](CC(N)=O)NC(=O)[C@H](CC(=O)O)NC(=O)[C@@H]2CCCN2C1=O` [compound 107]: the IC50 at hNav1.5 (IonWorks Quattro, use-dependent, […], read-out: IWQ Use Nav1.5) is 9.44 µM; at hNav1.3 (use-dependent, […]) it was 0.54 µM.

On to `CC[C@H](C)[C@@H]1NC(=O)[C@@H]2CSSC[C@@H]3NC(=O)[C@H](C(C)C)NC(=O)[C@H](CC(C)C)NC(=O)[C@H](CC(N)=O)NC(=O)[C@@H]4CCCN4C(=O)[C@H](CCCNC(=N)N)NC(=O)[C@H](CSSC[C@H](NC(=O)[C@@H](N)CC(=O)O)C(=O)N[C@@H](CC(C)C)C(=O)NCC(=O)N[C@@H](Cc4ccccc4)C(=O)N[C@@H](CCSC)C(=O)N[C@@H](CCCNC(=N)N)C(=O)N[C@@H](CCCCN)C(=O)N2)NC(=O)[C@H](CSSC[C@@H](C(=O)N[C@@H](CCCCN)C(=O)N[C@@H](Cc2ccc(O)cc2)C(=O)N[C@H](C(=O)N[C@@H](Cc2ccccc2)C(N)=O)C(C)C)NC(=O)[C@H](Cc2c[nH]c4ccccc24)NC(=O)[C@H](CCCCN)NC(=O)[C@H](Cc2cnc[nH]2)NC(=O)[C@H]([C@@H](C)O)NC(=O)[C@H](CCCNC(=N)N)NC(=O)[C@H](CO)NC3=O)NC(=O)[C@H](CCCCN)NC(=O)[C@H](CC(=O)O)NC(=O)[C@H](CC(N)=O)NC(=O)[C@H](C)NC(=O)[C@@H]2CCCN2C1=O` [compound 4] (H-DCLGFMRKCIPANDKCCRPNLVCSRTHKWCKYVF-NH2; disulfide 2-17, 9-23, 16-30), for which the values for the IC50 at hNav1.5 (IWQ Use Nav1.5 (μM)) and on hNav1.3 (Use) were 8.05 µM and 0.13 µM, respectively.

Consider `CSCC[C@@H]1NC(=O)[C@H](Cc2ccccc2)NC(=O)CNC(=O)[C@H](CC(C)C)NC(=O)[C@@H](NC(=O)[C@@H](N)CC(=O)O)CSSC[C@@H]2NC(=O)[C@@H]3CSSC[C@@H](C(=O)N[C@@H](CCCCN)C(=O)N[C@@H](Cc4ccc(O)cc4)C(=O)N[C@H](C(=O)N[C@@H](Cc4ccccc4)C(N)=O)C(C)C)NC(=O)[C@H](Cc4c[nH]c5ccccc45)NC(=O)[C@H](CCCCN)NC(=O)[C@H](Cc4cnc[nH]4)NC(=O)[C@H]([C@@H](C)O)NC(=O)[C@H](CCCNC(=N)N)NC(=O)[C@H](CO)NC(=O)[C@H](CSSC[C@H](NC(=O)[C@H](CCCCN)NC(=O)[C@H](CCCNC(=N)N)NC1=O)C(=O)N[C@@H](CC(=O)O)C(=O)N1CCC[C@H]1C(=O)N[C@@H](CC(=O)O)C(=O)N[C@@H](CC(N)=O)C(=O)N[C@@H](CC(=O)O)C(=O)N[C@@H](CCCCN)C(=O)N3)NC(=O)[C@H](C(C)C)NC(=O)[C@H](CC(C)C)NC(=O)[C@H](CC(N)=O)NC(=O)[C@@H]1CCCN1C(=O)[C@H](CCCNC(=N)N)NC2=O` [SEQ ID NO: 119, [Asp10]GpTx-1] (H-DCLGFMRKCDPDNDKCCRPNLVCSRTHKWCKYVF-NH2; disulfide 2-17, 9-23, 16-30), for which the results for the IC50 on hNav1.5 (setting [2]) and on hNav1.3 (Use) were 11.3 µM and 0.16 µM, respectively.

For the molecule `CC[C@H](C)[C@@H]1NC(=O)[C@@H]2CSSC[C@@H]3NC(=O)[C@H](C(C)C)NC(=O)[C@H](CC(C)C)NC(=O)[C@H](CC(N)=O)NC(=O)[C@@H]4CCCN4C(=O)[C@H](CCCNC(=N)N)NC(=O)[C@H](CSSC[C@H](NC(=O)[C@@H](N)CC(=O)O)C(=O)N[C@@H](CC(C)C)C(=O)NCC(=O)N[C@@H](Cc4ccccc4)C(=O)N[C@@H](CCSC)C(=O)N[C@@H](CCCNC(=N)N)C(=O)N[C@@H](CCCCN)C(=O)N2)NC(=O)[C@H](CSSC[C@@H](C(=O)N[C@@H](CCCCN)C(=O)N[C@@H](Cc2ccc(O)cc2)C(=O)N[C@H](C(=O)N[C@@H](Cc2ccccc2)C(N)=O)C(C)C)NC(=O)[C@H](Cc2cccc4ccccc24)NC(=O)[C@H](CCCCN)NC(=O)[C@H](Cc2cnc[nH]2)NC(=O)[C@H]([C@@H](C)O)NC(=O)[C@H](CCCNC(=N)N)NC(=O)[C@H](CO)NC3=O)NC(=O)[C@H](CCCCN)NC(=O)[C@H](CC(=O)O)NC(=O)[C@H](CC(N)=O)NC(=O)[C@H](CC(=O)O)NC(=O)[C@@H]2CCCN2C1=O` [SEQ ID NO: 79, [1-Nal29]GpTx-1] (H-DCLGFMRKCIPDNDKCCRPNLVCSRTHK[1Nal]CKYVF-NH2; disulfide 2-17, 9-23, 16-30), the IC50 on hNav1.5 (setting [1]) was determined as 9.25 µM; on hNav1.3 (Table 24, use, […]) it was 1.55 µM.

For the molecule `CSCC[C@@H]1NC(=O)[C@H](Cc2ccccc2)NC(=O)CNC(=O)[C@H](CC(C)C)NC(=O)[C@@H](NC(=O)[C@@H](N)CC(=O)O)CSSC[C@@H]2NC(=O)[C@@H]3CSSC[C@@H](C(=O)N[C@@H](CCCCN)C(=O)N[C@@H](Cc4ccc(O)cc4)C(=O)N[C@H](C(=O)N[C@@H](Cc4ccccc4)C(N)=O)C(C)C)NC(=O)[C@H](Cc4c[nH]c5ccccc45)NC(=O)[C@H](CCCCN)NC(=O)[C@H](Cc4cnc[nH]4)NC(=O)[C@H]([C@@H](C)O)NC(=O)[C@H](CCCNC(=N)N)NC(=O)[C@H](CO)NC(=O)[C@H](CSSC[C@H](NC(=O)[C@H](CCCCN)NC(=O)[C@H](CCCNC(=N)N)NC1=O)C(=O)N[C@@H](C)C(=O)N1CCC[C@H]1C(=O)N[C@@H](CC(=O)O)C(=O)N[C@@H](CC(N)=O)C(=O)N[C@@H](CC(=O)O)C(=O)N[C@@H](CCCCN)C(=O)N3)NC(=O)[C@H](C(C)C)NC(=O)[C@H](CC(C)C)NC(=O)[C@H](CC(N)=O)NC(=O)[C@@H]1CCCN1C(=O)[C@H](CCCNC(=N)N)NC2=O` [compound 45] (H-DCLGFMRKCAPDNDKCCRPNLVCSRTHKWCKYVF-NH2; disulfide 2-17, 9-23, 16-30), the results for the IC50 on hNav1.5 (setting [2]) and on hNav1.3 (Use) were 16.5 µM and 0.19 µM, respectively.

With `CC[C@H](C)[C@@H]1NC(=O)[C@@H]2CSSC[C@@H]3NC(=O)[C@H](C(C)C)NC(=O)[C@H](CC(C)C)NC(=O)[C@H](CC(N)=O)NC(=O)[C@@H]4CCCN4C(=O)[C@H](CCCNC(=N)N)NC(=O)[C@H](CSSC[C@H](NC(=O)[C@@H](N)CC(=O)O)C(=O)N[C@@H](CC(C)C)C(=O)NCC(=O)N[C@@H](Cc4ccccc4)C(=O)N[C@@H](CCSC)C(=O)N[C@@H](CCCNC(=N)N)C(=O)N[C@@H](CCCCN)C(=O)N2)NC(=O)[C@H](CSSC[C@@H](C(=O)N[C@@H](CCCCN)C(=O)N[C@@H](Cc2ccc(O)cc2)C(=O)N[C@H](C(=O)N[C@@H](Cc2ccccc2)C(N)=O)C(C)C)NC(=O)[C@H](Cc2c[nH]c4ccccc24)NC(=O)[C@H](CCCCN)NC(=O)[C@H](Cc2cnc[nH]2)NC(=O)[C@H]([C@@H](C)O)NC(=O)[C@H](CCCNC(=N)N)NC(=O)[C@H](C)NC3=O)NC(=O)[C@H](CCCCN)NC(=O)[C@H](CC(=O)O)NC(=O)[C@H](CC(N)=O)NC(=O)[C@H](CC(=O)O)NC(=O)[C@@H]2CCCN2C1=O` [compound 142] (H-DCLGFMRKCIPDNDKCCRPNLVCARTHKWCKYVF-NH2; disulfide 2-17, 9-23, 16-30), the IC50 at hNav1.5 (setting [2]) is 8.2 µM; at hNav1.3 (Use), 0.25 µM.
